# Experimental data reported in US11753397B2, “Cereblon binders for the degradation of ikaros” (C4 Therapeutics, Inc., priority 2018, dated 2023).
# Tested on: NCIH929.1 cells
# Assay: Cell viability assay (CellTiter-Glo 2.0, ATP quantification)
# Format: cell-based
# Details: NCIH929.1 cell viability, CellTiter-Glo 2.0, 96 hr incubation, top concentration 1 μM
# Description: Example 59. Cell Viability Assay
# RPMI 1640 medium, fetal bovine serum (FBS) and 2-mercaptoethanol were purchased from Gibco (Grand Island, N.Y., USA). CellTiter-Glo® 2.0 Assay was purchased from Promega (Madison, Wis., USA). NCIH929.1 cell line was purchased from ATCC (Manassas, Va., USA). Cell culture flasks and 384-well microplates were acquired from VWR (Radnor, Pa., USA).
# NCIH929.1 cell viability was determined based on quantification of ATP using CellTiter-Glo® 2.0 luminescent Assay kit, which signals the presence of metabolically-active cells. Briefly, the test compound was added to 384-well plates at a top concentration of 1 μM with 10 points, half log titration in duplicates. NCIH929.1 cells were seeded into the 384-well plates in RPMI medium containing 10% FBS and 0.05 mM 2-mercaptoethanol at a cell density of 750 cells per well. Cells treated in the absence of the test compound were the negative control and cells treated in the absence of CellTiter-Glo® 2.0 were the positive control. At the same day of compound treatment, CellTiter-Glo® 2.0 was added to a plate with cells treated in the absence of the test compound to establish Cytostatic control value (CT0). Cells treated with the test compound were incubated at 37° C. with 5% CO2 for 96 hr. CellTiter-Glo reagent was then added to the cells and luminescence was acquired on EnVision™ Multilabel Reader (PerkinElmer, Santa Clara, Calif., USA).
row,Structure (SMILES),GI50 [µM]
1,"[2H][C@@]1(N2C(=O)c3cccc(NCc4cnn(C5CCN(C(=O)OC(C)(C)C)CC5)c4)c3C2=O)CCC(=O)NC1=O (single isomer, unassigned) [Compound 185]",< 0.1
2,"[2H][C@]1(N2C(=O)c3cccc(NCc4cnn(C5CCN(C(=O)OC(C)(C)C)CC5)c4)c3C2=O)CCC(=O)NC1=O (single isomer, unassigned) [Compound 186]",< 0.1
3,"CC1(C(=O)N2CCC(n3cc(CNc4cccc5c4C(=O)N(C4CCC(=O)NC4=O)C5=O)cn3)CC2)CC1(Cl)Cl (stereo in doubt) [Compound 182, 4-(((1-(1-((R)-2,2-Dichloro-1-methylcyclopropane-1-carbonyl)piperidin-4-yl)-1H-pyrazol-4-yl)methyl)amino)-2-(2,6-dioxopiperidin-3-yl)isoindoline-1,3-dione]",< 0.1
4,"CC1(C(=O)N2CCC(n3cc(CNc4cccc5c4C(=O)N(C4CCC(=O)NC4=O)C5=O)cn3)CC2)CC1(Cl)Cl (stereo in doubt) [Compound 183, 4-(((1-(1-((S)-2,2-Dichloro-1-methylcyclopropane-1-carbonyl)piperidin-4-yl)-1H-pyrazol-4-yl)methyl)amino)-2-(2,6-dioxopiperidin-3-yl)isoindoline-1,3-dione]",< 0.001
5,"COCCC(=O)N1CCC(n2cc(CNc3cccc4c3C(=O)N(C3CCC(=O)NC3=O)C4=O)cn2)CC1 (stereo not drawn) [Compound 6, 2-(2,6-dioxopiperidin-3-yl)-4-(((1-(1-(3-methoxypropanyl)piperidin-4-yl)-1H-pyrazol-4-yl)methyl)amino)isoindoline-1,3-dione]",< 0.1
6,"O=C1CCC(N2C(=O)c3cccc(NCc4cnn(C5CCN(C(=O)c6cnco6)CC5)c4)c3C2=O)C(=O)N1 (stereo not drawn) [Compound 7, 2-(2,6-dioxopiperidin-3-yl)-4-(((1-(1-(oxazole-5-carbnonyl)piperidin-4-yl)-1H-pyrazol-4-yl)methyl)amino)isoindoline-1,3-dione]",< 0.1
7,"CC(C)(C)CCC(=O)N1CCC(n2cc(CNc3cccc4c3C(=O)N(C3CCC(=O)NC3=O)C4=O)cn2)CC1 (stereo not drawn) [Compound 8, 4-(((1-(1-(4,4-dimethylpentanoyl)piperidin-4-yl)-1H-pyrazol-4-yl)methyl)amino)-2-(2,6-dioxopiperidin-3-yl)isoindoline-1,3-dione]",< 0.001
8,"CC(C)C(=O)N1CCC(n2cc(CNc3cccc4c3C(=O)N(C3CCC(=O)NC3=O)C4=O)cn2)CC1 (stereo not drawn) [Compound 9, 2-(2,6-dioxopiperidin-3-yl)-4-(((1-(1-isobutyrylpiperidin-4-yl)-1H-pyrazol-4-yl)methyl)amino)isoindoline-1,3-dione]",< 0.1
9,"O=C1CCC(N2C(=O)c3cccc(NCc4cnn(C5CCN(C(=O)C(F)F)CC5)c4)c3C2=O)C(=O)N1 (stereo not drawn) [Compound 10, 4-(((1-(1-(2,2-difluoroacetyl)piperidin-4-yl)-1H-pyrazol-4-yl)methyl)amino)-2-(2,6-dioxopiperidin-3-yl)isoindoline-1,3-dione]",< 0.1
10,"O=C1CCC(N2C(=O)c3cccc(NCc4cnn(C5CCN(C(=O)C6CCOCC6)CC5)c4)c3C2=O)C(=O)N1 (stereo not drawn) [Compound 11, 2-(2,6-dioxopiperidin-3-yl)-4-(((1-(1-(tetrahydro-2H-pyran-4-carbonyl)piperidin-4-yl)-1H-pyrazol-4-yl)methyl)amino)isoindoline-1,3-dione]",< 0.1
11,"CC(C)(C)CC(=O)N1CCC(n2cc(CNc3cccc4c3C(=O)N(C3CCC(=O)NC3=O)C4=O)cn2)CC1 (stereo not drawn) [Compound 12, 4-(((1-(1-(3,3-dimethylbutanoyl)piperidin-4-yl)-1H-pyrazol-4-yl)methyl)amino)-2-(2,6-dioxopiperidin-3-yl)isoindoline-1,3-dione]",< 0.1
12,"CCC(C)C(=O)N1CCC(n2cc(CNc3cccc4c3C(=O)N(C3CCC(=O)NC3=O)C4=O)cn2)CC1 (stereo not drawn) [Compound 13, 2-(2,6-dioxopiperidin-3-yl)-4-(((1-(1-(2-methylbutanoyl)piperidin-4-yl)-1H-pyrazol-4-yl)methyl)amio)isoindoline-1,3-dione]",< 0.1
13,"O=C1CCC(N2C(=O)c3cccc(NCc4cnn(C5CCN(C(=O)C6CCC6)CC5)c4)c3C2=O)C(=O)N1 (stereo not drawn) [Compound 14, 4-(((1-(1-(cyclobutanecarbonyl)piperidin-4-yl)-1H-pyrazol-4-yl)methyl)amino)-2-(2,6-dioxopiperidin-3-yl)isoindoline-1,3-dione]",< 0.1
14,"CO[C@H]1CC[C@H](C(=O)N2CCC(n3cc(CNc4cccc5c4C(=O)N(C4CCC(=O)NC4=O)C5=O)cn3)CC2)CC1 (stereo partly drawn) [Compound 15, 2-(2,6-dioxopiperidin-3-yl)-4-(((1-(1-((1r,4r)-4-methoxycyclohexane-1-carbonyl)piperidin-4-yl)-1H-pyrazol-4-yl)methyl)amino)isoindoline-1,3-dione]",< 0.1
15,"O=C1CCC(N2C(=O)c3cccc(NCc4cnn(C5CCN(C(=O)c6ccccc6)CC5)c4)c3C2=O)C(=O)N1 (stereo not drawn) [Compound 16, 4-(((1-(1-benzoylpiperidin-4-yl)-1H-pyrazol-4-yl)methyl)amino)-2-(2,6-dioxopiperidin-3-yl)isoindoline-1,3-dione]",< 0.1
16,"CCOCC(=O)N1CCC(n2cc(CNc3cccc4c3C(=O)N(C3CCC(=O)NC3=O)C4=O)cn2)CC1 (stereo not drawn) [Compound 17, 2-(2,6-dioxopiperidin-3-yl)-4-(((1-(1-(2-ethoxyacetyl)piperidin-4-yl)-1H-pyrazol-4-yl)methyl)amino)isoindoline-1,3-dione]",< 0.1
17,"O=C1CCC(N2C(=O)c3cccc(NCc4cnn(C5CCN(C(=O)Cn6cccn6)CC5)c4)c3C2=O)C(=O)N1 (stereo not drawn) [Compound 18, 4-(((1-(1-(2-(1H-pyrazol-1-yl)acetyl)piperidin-4-yl)-1H-pyrazol-4-yl)methyl)amino)-2-(2,6-dioxopiperidin-3-yl)isoindoline-1,3-dione]",< 0.1
18,"N#CCC(=O)N1CCC(n2cc(CNc3cccc4c3C(=O)N(C3CCC(=O)NC3=O)C4=O)cn2)CC1 (stereo not drawn) [Compound 19, 3-(4-(4-(((2-(2,6-dioxopiperidin-3-yl)-1,3-dioxoisoindolin-4-yl)amino)methyl)-1H-pyrazol-1-yl)piperidin-1-yl)-3-oxopropanenitrile]",< 0.1
19,"O=C1CCC(N2C(=O)c3cccc(NCc4cnn(C5CCN(C(=O)CC6CCCC6)CC5)c4)c3C2=O)C(=O)N1 (stereo not drawn) [Compound 20, 4-(((1-(1-(2-cyclopentylacetyl)piperidin-4-yl)-1H-pyrazol-4-yl)methyl)amino)-2-(2,6-dioxopiperidin-3-yl)isoindoline-1,3-dione]",< 0.1
20,"O=C1CCC(N2C(=O)c3cccc(NCc4cnn(C5CCN(C(=O)CCC6CC6)CC5)c4)c3C2=O)C(=O)N1 (stereo not drawn) [Compound 21, 4-(((1-(1-(3-cyclopropylpropanoyl)piperidin-4-yl)-1H-pyrazol-4-yl)methyl)amino)-2-(2,6-dioxopiperidin-3-yl)isoindoline-1,3-dione]",< 0.1
21,"O=C1CCC(N2C(=O)c3cccc(NCc4cnn(C5CCN(C(=O)C6CCCCC6)CC5)c4)c3C2=O)C(=O)N1 (stereo not drawn) [Compound 22, 4-(((1-(1-(cyclohexanecarbonyl)piperidin-4-yl)-1H-pyrazol-4-yl)methyl)amino)-2-(2,6-dioxopiperidin-3-yl)isoindoline-1,3-dione]",< 0.1
22,"CC(C)CCC(=O)N1CCC(n2cc(CNc3cccc4c3C(=O)N(C3CCC(=O)NC3=O)C4=O)cn2)CC1 (stereo not drawn) [Compound 23, 2-(2,6-dioxopiperidin-3-yl)-4-(((1-(1-(4-methylpentanoyl)piperidin-4-yl)-1H-pyrazol-4-yl)methyl)amino)isoindoline-1,3-dione]",< 0.001
23,"O=C1CCC(N2C(=O)c3cccc(NCc4cnn(C5CCN(C(=O)C6CC6)CC5)c4)c3C2=O)C(=O)N1 (stereo not drawn) [Compound 24, 4-(((1-(1-(cyclopropanecarbonyl)piperidin-4-yl)-1H-pyrazol-4-yl)methyl)amino)-2-(2,6-dioxopiperidin-3-yl)isoindoline-1,3-dione]",< 0.1
24,"O=C1CCC(N2C(=O)c3cccc(NCc4cnn(C5CCN(C(=O)Cc6ccc(F)cc6)CC5)c4)c3C2=O)C(=O)N1 (stereo not drawn) [Compound 25, 2-(2,6-dioxopiperidin-3-yl)-4-(((1-(1-(2-(4-fluorophenyl)acetyl)piperidin-4-yl)-1H-pyrazol-4-yl)methyl)amino)isoindoline-1,3-dione]",< 0.1
25,"O=C1CCC(N2C(=O)c3cccc(NCc4cnn(C5CCN(C(=O)CC6CC6)CC5)c4)c3C2=O)C(=O)N1 (stereo not drawn) [Compound 26, 4-(((1-(1-(2-cyclopropylacetyl)piperidin-4-yl)-1H-pyrazol-4-yl)methyl)amino)-2-(2,6-dioxopiperidin-3-yl)isoindoline-1,3-dione]",< 0.1
26,"O=C1CCC(N2C(=O)c3cccc(NCc4cnn(C5CCN(C(=O)CC6CCCCC6)CC5)c4)c3C2=O)C(=O)N1 (stereo not drawn) [Compound 27, 4-(((1-(1-(2-cyclohexylacetyl)piperidin-4-yl)-1H-pyrazol-4-yl)methyl)amino)-2-(2,6-dioxopiperidin-3-yl)isoindoline-1,3-dione]",< 0.001
27,"O=C1CCC(N2C(=O)c3cccc(NCc4cnn(C5CCN(C(=O)CC6CCOCC6)CC5)c4)c3C2=O)C(=O)N1 (stereo not drawn) [Compound 28, 2-(2,6-dioxopiperidin-3-yl)-4-(((1-(1-(2-(tetrahydro-2H-pyrazin-4-yl)acetyl)piperidin-4-yl)-1H-pyrazol-4-yl)methyl)amino)isoindoline-1,3-dione]",< 0.1
